Several values for one entry are separate records, joined by “and”; a condition that tells them apart may be missing. Identical values can stand only once.
Test system: NCI-H929 complex spheroids, viability % test/control
Assay: Anticancer human tumor NCI-H929 cell line growth inhibition [RAS];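 note: compound exposure lasted seven days before viability was read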;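 for viability, T/C: 100% = DMSO vehicle control viability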
Settings: for viability, T/C: stronger effect = lower value; active = viability on the fitted dose curve at most 10% of control; inactive = the rest
In short: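 Agents were tested in combination matrices in half-log decrements from a top concentration at or near clinical Cmax (10 microM if undetermined). Targets were multi-cell spheroids of tumour lines plus HUVEC and MSC stromal cells.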

C=CC(=O)N1CCN(c2nc(OCC3CCCN3C)nc3c(F)c(-c4nc(N)cc(C)c4C(F)(F)F)c(Cl)cc23)C(C)C1 (configuration not stated) + C#Cc1c(F)ccc2cc(O)cc(-c3ncc4c(N5CC6CCC(C5)N6)nc(OCC56CCCN5CC(F)C6)nc4c3F)c12
> 1000 nM: IC50 (curve of first compound, second compound 0.0316 µM) | IC50 (curve of first compound, second compound 0.1 µM) | IC50 (curve of first compound, second compound 0.316 µM) | IC50 (curve of first compound, second compound 1 µM) | IC50 (curve of first compound, second compound 3.16 µM) | IC50 (curve of first compound, second compound 10 µM)
inactive: viability, T/C (second compound 0.0316 µM, first compound 0.00316 µM) 102% | viability, T/C (second compound 0.0316 µM, first compound 0.01 µM) 97.5% | viability, T/C (second compound 0.0316 µM, first compound 0.0316 µM) 99.1% | viability, T/C (second compound 0.0316 µM, first compound 0.1 µM) 97.3% | viability, T/C (second compound 0.0316 µM, first compound 0.316 µM) 108% | viability, T/C (second compound 0.0316 µM, first compound 1 µM) 103% | viability, T/C (second compound 0.1 µM, first compound 0.00316 µM) 98.8% | viability, T/C (second compound 0.1 µM, first compound 0.01 µM) 101% | viability, T/C (second compound 0.1 µM, first compound 0.0316 µM) 102% | viability, T/C (second compound 0.1 µM, first compound 0.1 µM) 106% | viability, T/C (second compound 0.1 µM, first compound 0.316 µM) 107% | viability, T/C (second compound 0.1 µM, first compound 1 µM) 112% | viability, T/C (second compound 0.316 µM, first compound 0.00316 µM) 96.1% | viability, T/C (second compound 0.316 µM, first compound 0.01 µM) 104% | viability, T/C (second compound 0.316 µM, first compound 0.0316 µM) 101% | viability, T/C (second compound 0.316 µM, first compound 0.1 µM) 104% | viability, T/C (second compound 0.316 µM, first compound 0.316 µM) 106% | viability, T/C (second compound 0.316 µM, first compound 1 µM) 110% | viability, T/C (second compound 1 µM, first compound 0.00316 µM) 95.8% | viability, T/C (second compound 1 µM, first compound 0.01 µM) 104% | viability, T/C (second compound 1 µM, first compound 0.0316 µM) 107% | viability, T/C (second compound 1 µM, first compound 0.1 µM) 105% | viability, T/C (second compound 1 µM, first compound 0.316 µM) 101% | viability, T/C (second compound 1 µM, first compound 1 µM) 112% | viability, T/C (second compound 3.16 µM, first compound 0.00316 µM) 103% | viability, T/C (second compound 3.16 µM, first compound 0.01 µM) 99.8% | viability, T/C (second compound 3.16 µM, first compound 0.0316 µM) 103% | viability, T/C (second compound 3.16 µM, first compound 0.1 µM) 104% | viability, T/C (second compound 3.16 µM, first compound 0.316 µM) 106% | viability, T/C (second compound 3.16 µM, first compound 1 µM) 115% | viability, T/C (second compound 10 µM, first compound 0.00316 µM) 104% | viability, T/C (second compound 10 µM, first compound 0.01 µM) 101% | viability, T/C (second compound 10 µM, first compound 0.0316 µM) 100% | viability, T/C (second compound 10 µM, first compound 0.1 µM) 105% | viability, T/C (second compound 10 µM, first compound 0.316 µM) 99.6% | viability, T/C (second compound 10 µM, first compound 1 µM) 104%

O=C(c1ccc(F)c(F)c1Nc1ccc(I)cc1F)N1CC(O)([C@@H]2CCCCN2)C1
> 1000 nM and 672 nM and 724 nM: IC50 (curve of compound)
inactive: viability, T/C (compound 0.00316 µM) 105% [middle of 4 runs] | viability, T/C (compound 0.01 µM) 95.4% [middle of 4 runs] | viability, T/C (compound 0.1 µM) 96.1% [middle of 4 runs] | viability, T/C (compound 0.316 µM) 115% [middle of 4 runs]

— PubChem BioAssay AID2060884 (Molecular Pharmacology Branch, DTP, NCI, 2025)
